Measurements published in patent US11207319B2, “Method for the treatment of bladder cancer” (Cipla Limited, priority 2015, dated 2021).
Where two headings read alike, the source gives them in different places.

Tests used:
HT1376 = assay: In vitro anticancer activity, bladder carcinoma efficacy models (cytotoxicity/clonogenic); format: cell-based, human; settings: HT1376, varied concentrations
Method: (§1) Human bladder cancer cell lines HTB-5, HT-1376 and T-24 were purchased from American Type Culture Collection, USA. Cell lines HTB-5 and HT1376 were routinely cultured in Eagle's Minimum Essential Medium with 10% fetal bovine serum and T-24 in McCoy's 5A medium with 10% fetal bovine serum. All cell lines were maintained at 37° C. in a humidified atmosphere containing 5% CO2.
(§2) In vitro cytotoxicity assay: Cells were plated in 96-well cell culture plates (4×10^3 cells/well) and were treated with drugs at various concentrations. Treated cells were maintained at 37° C. in 5% CO2 for 48 and 72 hrs. After the incubation antiproliferative activity of test compounds was measured using ProMega Cell Titer aqueous one solution cell proliferation assay kit, viz. CellTiter 96® AQueous One Solution Reagent. Cells were incubated for 1-4 hours at 37° C., 5% CO2 incubator and absorbance was measured at 490 nm using a plate reader. IC50 values were determined by plotting compound concentration versus cell viability.
(§3) Clonogenic assay: bladder cancer cell lines viz HTB-5, HT-1376 and T-24 cells were plated at different densities i.e. 300 cells/well and 400 cells/well respectively in 3 ml volume per well into six-well plates and incubated overnight at 37° C. in a 5% CO2 incubator. […] Medium with drug was then replaced with medium without drug and plates were further incubated till visible colonies appeared (approximately for 12-14 days). Cells were then fixed with methanol:glacial acetic acid (2:1) and stained with 0.5% crystal violet. After staining for 2-3 min, plates were rinsed twice with D/W, dried and images were captured.

HTB-5 = assay: as above; format: cell-based, human; settings: HTB-5, varied concentrations
Method: as §1, §2, §3

T-24 = assay: as above; format: cell-based, human; settings: T-24, varied concentrations
Method: as §1, §2, §3

BXF 1036 [1] = assay: In vitro 2D assay, CellTiter-Blue Cell Viability Assay; format: cell-based; settings: Homo sapiens, BXF 1036, 96 h, read-out: Absolute IC50 values
Method: (§4) The in-vitro anti-tumor activity of terconazole was assessed in five selected human bladder cancer cell lines. The test compounds were applied at 9 concentrations in half-log increments. As a reference compound cisplatin was tested in parallel. Cells were treated for 96 h with the test compounds. Anti-tumor activity was assessed by using the CellTiter-Blue® Cell Viability Assay. Potency is expressed as absolute IC50 and relative IC50 values, calculated by non-linear regression analysis.
(§5) Tumor Cell Lines: In the present study the human bladder cancer cell lines BXF 1036, BXF 1218, BXF 1352, 5637 and T24 were used. BXF 1036, BXF 1218 and BXF 1352 were established at Oncotest from the corresponding human patient derived xenograft. T24 was purchased from ATCC (Rockville, Md., USA) and 5637 was from DSMZ (Braunschweig, Germany). Authenticity of cell lines was confirmed at the DSMZ by STR (short tandem repeat) analysis, a PCR based DNA-fingerprinting methodology. Cell lines were routinely passaged once or twice weekly and maintained in culture for up to 20 passages. All cells were grown at 37° C. in a humidified atmosphere with 5% CO2 in RPMI 1640 medium (25 mM HEPES, with L-glutamine, #FG1385, Biochrom, Berlin, Germany) supplemented with 10% (v/v) fetal calf serum (Sigma, Taufkirchen, Germany) and 0.1 mg/mL gentamicin (Life Technologies, Karlsruhe, Germany).
(§6) Cell Proliferation Assay: The CellTiter-Blue® Cell Viability Assay (#G8081, Promega) was used according to manufacturer's instructions. Briefly, cells were harvested from exponential phase cultures, […] on the cell line's growth rate. After a 24 h recovery period to allow the cells to resume exponential growth, test compounds were added. Compounds were applied at 9 concentrations in half-log increments in duplicate and treatment continued for 96 h. After 96 h treatment of cells, 20 μL/well CellTiter-Blue® reagent was added.
(§7) Following an incubation period of up to four hours, fluorescence (FU) was measured by using the Enspire Multimode Plate Reader (excitation k=531 nm, emission k=615 nm). For calculations, the mean values of duplicate/sixfold (untreated control) data were used. Sigmoidal concentration-response curves were fitted to the data points (T/C values) obtained for each cell line using 4 parameter non-linear curve fit (Oncotest Warehouse Software).

BXF 1218 [2] = assay: as above; format: cell-based; settings: Homo sapiens, BXF 1218, 96 h, read-out: Absolute IC50 values
Method: as §4, §5, §6, §7

BXF 1352 [3] = assay: as above; format: cell-based; settings: Homo sapiens, BXF 1352, 96 h, read-out: Absolute IC50 values
Method: as §4, §5, §6, §7

BXF 5637 [4] = assay: as above; format: cell-based; settings: Homo sapiens, BXF 5637, 96 h, read-out: Absolute IC50 values
Method: as §4, §5, §6, §7

BXF T24 [5] = assay: as above; format: cell-based; settings: Homo sapiens, BXF T24, 96 h, read-out: Absolute IC50 values
Method: as §4, §5, §6, §7

[6] = test system: five selected human bladder cancer cell lines; assay: In vitro 2D assay, CellTiter-Blue Cell Viability Assay, mean over panel; format: cell-based; settings: 96 h, read-out: Geometric Mean Absolute IC50 values
Method: as §4
as §5, with “All cells were grown at 37° C. in a humidified atmosphere with 5% CO2 in RPMI 1640 medium (25 mM HEPES, with L-glutamine, #FG1385, Biochrom, Berlin, Germany) supplemented with 10% (v/v) fetal calf serum (Sigma, Taufkirchen, Germany) and 0.1 mg/mL gentamicin (Life Technologies, Karlsruhe, Germany).” left out
Following an incubation period of up to four hours, fluorescence (FU) was measured by using the Enspire Multimode Plate Reader (excitation k=531 nm, emission k=615 nm). […]

BXF 1036 [7] = assay: In vitro 3D clonogenic assay (colony formation in semi-solid medium); format: cell-based; settings: Homo sapiens, read-out: Absolute IC50 values
Method: (§8) In the present study, terconazole and cisplatin were evaluated for their ability to inhibit anchorage independent growth and ex vivo colony formation of tumor cells in semi-solid medium. The compounds were tested against 5 human tumor cell lines of bladder cancer. Test concentrations ranged, from 0.0316 μM to 316.2 μM (terconazole), or from 0.00316 μM to 100 μM (cisplatin).
(§9) Terconazole and the reference compound cisplatin were investigated for anticancer activity ex vivo in five human tumor cell lines of bladder cancer. Tests were carried out using a 3D clonogenic assay in 96-well format with image based read-out. The aim of the study was to investigate antitumor potency and tumor type selectivity of the compound.
(§10) Clonogenic Assay Procedure: The clonogenic assay was carried out in a 96 well plate format using ultra low attachment plates. For each test, cells were prepared as described above and assay plates were prepared as follows: each test well contained a layer of semi-solid medium with tumor cells (50 and a second layer of medium supernatant with or without test compound (100 The cell layer consisted of 2·10^3 to 3·10^3 tumor cells per well, which were seeded in 50 μL/well cell culture medium (IMDM, supplemented with 20% (v/v) fetal calf serum, 0.01% (w/v) gentamicin, and 0.4% (w/v) agar. After 24 hours the test compounds were added after serial dilution in cell culture medium, and left on the cells for the duration of the experiment (continuous exposure, 100 μl drug overlay). Every plate included six untreated control wells and drug-treated groups in duplicate at 9 concentrations. Cultures were incubated at 37° C. and 7.5% CO2 in a humidified atmosphere for 8 to 13 days and monitored closely for colony growth using an inverted microscope. Within this period, ex vivo tumor growth led to the formation of colonies with a diameter of >50 μm. At the time of maximum colony formation, counts were performed with an automatic image analysis system (Bioreader 5000-Wa Biosys GmbH). 48 hours prior to evaluation, vital colonies were stained with a sterile aqueous solution of 2-(4-iodophenyl)-3-(4-nitrophenyl)-5-phenyltetrazolium chloride (1 mg/ml, 100 μl/well)

BXF 1218 [8] = assay: as above; format: cell-based; settings: Homo sapiens, read-out: Absolute IC50 values
Method: as §8, §9, §10

BXF 1352 [9] = assay: as above; format: cell-based; settings: Homo sapiens, read-out: Absolute IC50 values
Method: as §8, §9, §10

BXF 5637 [10] = assay: as above; format: cell-based; settings: Homo sapiens, read-out: Absolute IC50 values
Method: as §8, §9, §10

BXF T24 [11] = assay: as above; format: cell-based, human; settings: read-out: Absolute IC50 values
Method: as §8, §9
Clonogenic Assay Procedure: The clonogenic assay was carried out in a 96 well plate format using ultra low attachment plates. […] Cultures were incubated at 37° C. and 7.5% CO2 in a humidified atmosphere for 8 to 13 days and monitored closely for colony growth using an inverted microscope. […]

[12] = test system: 5 human tumor cell lines of bladder cancer; assay: In vitro 3D clonogenic assay, panel summary; format: cell-based; settings: for IC50: Homo sapiens
Method: as §8, §9, §10

BXF 1036L = assay: In vitro combination study, 3D clonogenic assay, 5x5 matrix; format: cell-based; settings: Homo sapiens, monotherapy controls of 5x5 matrix, soft agar, read-out: IC50, colony formation, single agent
Method: (§11) Summary: Terconazole was tested alone and in combination with cisplatin in order to investigate the ability to inhibit tumor cell growth of bladder cancer cell lines in a 5×5 matrix combination format. Efficacy of the combinations was assessed by measuring anchorage-independent growth and in vitro tumor colony formation using a 3D clonogenic assay in cell lines BXF 1036L, BXF 1218L, and BXF T24.
(§12) The objective of this study was to assess anti-tumor efficacy of CIPDE033 and CIPDE034 in combination with cisplatin in a 5×5 matrix combination format against various bladder cancer cell lines. Efficacy of the combinations was assessed by measuring anchorage-independent growth and in vitro tumor colony formation using a 3D clonogenic assay in cell lines BXF 1036L, BXF 1218L, and BXF T24. […]
(§13) Cultivation of Cell Lines: Cell lines were routinely passaged once or twice weekly and maintained in culture for up to 20 passages. […] The percentage of viable cells was determined in a Neubauer-hemocytometer using trypan blue exclusion.
(§14) 3D Clonogenic Assay Procedure: The clonogenic assay was carried out in a 96 well plate format using ultra low attachment plates. […] Cultures were incubated at 37° C. and 7.5% CO2 in a humidified atmosphere for 8 to 13 days and monitored closely for colony growth using an inverted microscope. […]

BXF T24 [13] = assay: as above; format: cell-based; settings: Homo sapiens; monotherapy controls of 5x5 matrix, BXF T24, soft agar; read-out: IC50, colony formation, single agent
Method: as §11, §12, §13, §14

rat spleen HO-1 = target: T1, rat spleen HO-1 (Rattus norvegicus, UniProt P06762); settings: reported in literature; read-out: IC50, inhibition of rat spleen HO-1 activity; cited from earlier work
T1 construct: host or cells: rat spleen
T1 sequence (P06762 1-289): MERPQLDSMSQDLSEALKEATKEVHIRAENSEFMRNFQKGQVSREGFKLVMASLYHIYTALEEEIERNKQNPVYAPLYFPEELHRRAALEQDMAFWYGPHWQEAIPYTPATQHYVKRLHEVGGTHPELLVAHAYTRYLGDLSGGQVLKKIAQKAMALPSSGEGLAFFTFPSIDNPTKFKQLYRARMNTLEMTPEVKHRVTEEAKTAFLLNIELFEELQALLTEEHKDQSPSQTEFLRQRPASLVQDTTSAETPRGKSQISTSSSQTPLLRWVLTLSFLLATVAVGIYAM

CC(C)N1CCN(c2ccc(OC[C@@H]3CO[C@@](Cn4cncn4)(c4ccc(Cl)cc4Cl)O3)cc2)CC1 (racemic) [Terconazole]
anticancer activity in vitro (HT1376): significant anticancer activity
anticancer activity in vitro (HTB-5): significant anticancer activity
anticancer activity in vitro (T-24): significant anticancer activity
IC50 (BXF 1036 [1]): 29.4 µM
IC50 (BXF 1218 [2]): 46.9 µM
IC50 (BXF 1352 [3]): 45.9 µM
IC50 (BXF 5637 [4]): 38.4 µM
IC50 (BXF T24 [5]): 41.5 µM
IC50 [6]: 39.9 µM
IC50 (BXF 1036 [7]): 29.7 µM
IC50 (BXF 1218 [8]): 40.3 µM
IC50 (BXF 1352 [9]): 36.6 µM
IC50 (BXF 5637 [10]): 30.8 µM
IC50 (BXF T24 [11]; Homo sapiens): 33.1 µM
Bottom plateaus of the concentration-effect curves ([12]; 3D clonogenic assay, responding tumor models): 0%
IC50 ([12]; read-out: mean relative IC50 value): 33.5 µM
IC50 ([12]; 3D clonogenic assay, colony formation, read-out: IC50 values, range over all bladder cancer cell lines tested): 29.6 to 40.1 µM
IC50 ([12]; 3D clonogenic assay, five cell lines, read-out: Geometric Mean Absolute IC50 values): 33.9 µM
IC50 (BXF 1036L): 27.1 µM
IC50 (BXF T24 [13]): 59.8 µM
IC50 (rat spleen HO-1): 0.41 ± 0.01 µM

N.N.[Cl][Pt][Cl] [Cisplatin, cisplatin]
IC50 (BXF T24 [11]): 53 µM
